Measured values from ChEMBL document CHEMBL1201861, “Genomics of Drug Sensitity in Cancer screening data, Wellcome Trust Sanger Institute”.

How the values were obtained:
Assay in all cases: cells
Conditions in all cases: Homo sapiens
CAL-72 = assay type: functional, cell-based;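 also: cell viability assay measuring inhibition of proliferation in the CAL-72 cell line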
Description: SANGER: Inhibition of human CAL-72 cell growth in a cell viability assay.

8305C = assay type: functional, cell-based
Description: SANGER: Inhibition of human 8305C cell growth in a cell viability assay.

CAMA-1 = assay type: functional, cell-based;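 also: growth inhibition of CAMA-1 cells, read out with a cell viability assay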
Description: SANGER: Inhibition of human CAMA-1 cell growth in a cell viability assay.

RVH-421 = assay type: functional, cell-based
Description: SANGER: Inhibition of human RVH-421 cell growth in a cell viability assay.

D-392MG = assay type: functional, cell-based
NCI-H2122 = assay type: functional, cell-based;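 also: growth inhibition of the cells, read out with a cell viability assay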
Description: SANGER: Inhibition of human NCI-H2122 cell growth in a cell viability assay.

MDA-MB-415 = assay type: functional, cell-based
HCC1806 = assay type: functional, cell-based;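 also: growth inhibition of the cancer cell line, determined with a cell viability assay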
Description: SANGER: Inhibition of human HCC1806 cell growth in a cell viability assay.

786-0 = assay type: functional, cell-based
Description: SANGER: Inhibition of human 786-0 cell growth in a cell viability assay.

NCI-H1693 = assay type: functional, cell-based;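 also: growth inhibition of the human cell line, read out with a cell viability assay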
Description: SANGER: Inhibition of human NCI-H1693 cell growth in a cell viability assay.

COLO-680N = assay type: functional, cell-based;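 also: cell viability assay used to measure inhibition of COLO-680N cell growth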
Description: SANGER: Inhibition of human COLO-680N cell growth in a cell viability assay.

OAW-28 = assay type: functional, cell-based;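 also: growth inhibition of OAW-28 cells, read out with a cell viability assay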
Description: SANGER: Inhibition of human OAW-28 cell growth in a cell viability assay.

DBTRG-05MG = assay type: functional, cell-based;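 also: cell viability assay measuring growth inhibition of human DBTRG-05MG cells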
Description: SANGER: Inhibition of human DBTRG-05MG cell growth in a cell viability assay.

NCI-H2405 = assay type: functional, cell-based;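 also: growth inhibition of the human cell line, read out with a cell viability assay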
Description: SANGER: Inhibition of human NCI-H2405 cell growth in a cell viability assay.

FaDu = assay type: functional, cell-based;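 also: cell viability readout of growth inhibition in FaDu cells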
Description: SANGER: Inhibition of human FADU cell growth in a cell viability assay.

COLO-678 = assay type: functional, cell-based
Description: SANGER: Inhibition of human COLO-678 cell growth in a cell viability assay.

LU-99A = assay type: functional, cell-based;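 also: growth inhibition of LU-99A cells, read out with a cell viability assay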
Description: SANGER: Inhibition of human LU-99A cell growth in a cell viability assay.

LK-2 = assay type: functional, cell-based;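 also: growth inhibition of LK-2 cells, read out with a viability assay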
Description: SANGER: Inhibition of human LK-2 cell growth in a cell viability assay.

HCC1954 = assay type: functional, cell-based;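 also: growth inhibition of human HCC1954 cells, read out with a cell viability assay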
Description: SANGER: Inhibition of human HCC1954 cell growth in a cell viability assay.

RPMI-7951 = assay type: functional, cell-based
Description: SANGER: Inhibition of human RPMI-7951 cell growth in a cell viability assay.

HT1197 = assay type: functional, cell-based, HT-1197
Description: SANGER: Inhibition of human HT-1197 cell growth in a cell viability assay.

SW948 = assay type: functional, cell-based;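 also: growth inhibition of SW948 cells, read out with a cell viability assay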
Description: SANGER: Inhibition of human SW948 cell growth in a cell viability assay.

HCC70 = assay type: functional, cell-based;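 also: cell viability assay measuring how strongly the compound suppresses proliferation of HCC70 cells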
Description: SANGER: Inhibition of human HCC70 cell growth in a cell viability assay.

HMV-2 cell line = assay type: functional, cell-based;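 also: growth inhibition of HMV-II cells, read out with a cell viability assay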
Description: SANGER: Inhibition of human HMV-II cell growth in a cell viability assay.

HSC-4 = assay type: functional, cell-based;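 also: growth inhibition of human HSC-4 cells, read out with a cell viability assay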
Description: SANGER: Inhibition of human HSC-4 cell growth in a cell viability assay.

NCI-H520 = assay type: functional, cell-based;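 also: growth inhibition of NCI-H520 cells, measured by a cell viability assay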
Description: SANGER: Inhibition of human NCI-H520 cell growth in a cell viability assay.

SAS = assay type: functional, cell-based;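 also: growth inhibition of SAS cells, read out with a cell viability assay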
Description: SANGER: Inhibition of human SAS cell growth in a cell viability assay.

ASPC1 = assay type: functional, cell-based;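 also: growth inhibition of AsPC-1 cells, read out with a cell viability assay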
Description: SANGER: Inhibition of human AsPC-1 cell growth in a cell viability assay.

CAL-120 = assay type: functional, cell-based;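 also: cell growth inhibition, read out as cell viability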
Description: SANGER: Inhibition of human CAL-120 cell growth in a cell viability assay.

MFE-280 = assay type: functional, cell-based;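 also: growth inhibition of MFE-280 cells, determined with a cell viability readout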
Description: SANGER: Inhibition of human MFE-280 cell growth in a cell viability assay.

ESS-1 = assay type: functional, cell-based;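 also: growth inhibition of human ESS-1 cells, read out by a cell viability assay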
Description: SANGER: Inhibition of human ESS-1 cell growth in a cell viability assay.

FTC-133 = assay type: functional, cell-based
EGI-1 = assay type: functional, cell-based;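 also: cell viability readout used to gauge growth inhibition of EGI-1 cells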
Description: SANGER: Inhibition of human EGI-1 cell growth in a cell viability assay.

NB17 = assay type: functional, cell-based;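 also: growth inhibition of NB17 cells, read out with a cell viability assay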
Description: SANGER: Inhibition of human NB17 cell growth in a cell viability assay.

P12-Ichikawa = assay type: functional, cell-based
SW1573 = assay type: functional, cell-based;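 also: growth inhibition of SW1573 cells, read out with a cell viability assay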
Description: SANGER: Inhibition of human SW1573 cell growth in a cell viability assay.

Capan-2 = assay type: functional, cell-based;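 also: Capan-2 cell growth inhibition, read out with a viability assay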
Description: SANGER: Inhibition of human Capan-2 cell growth in a cell viability assay.

NCI-H1793 = assay type: functional, cell-based;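 also: cell growth inhibition, read out by a cell viability assay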
Description: SANGER: Inhibition of human NCI-H1793 cell growth in a cell viability assay.

HGC-27 = assay type: functional, cell-based;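 also: growth inhibition of human HGC-27 cells, read out in a cell viability assay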
Description: SANGER: Inhibition of human HGC-27 cell growth in a cell viability assay.

VM-CUB-1 = assay type: functional, cell-based;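 also: cell viability assay measuring growth inhibition of the human VM-CUB-1 cell line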
Description: SANGER: Inhibition of human VM-CUB-1 cell growth in a cell viability assay.

HLE = assay type: functional, cell-based;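 also: growth inhibition of human HLE cells, read out by a cell viability assay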
Description: SANGER: Inhibition of human HLE cell growth in a cell viability assay.

NCI-H358 = assay type: functional, cell-based;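 also: growth inhibition of NCI-H358 human cells, read out with a cell viability assay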
Description: SANGER: Inhibition of human NCI-H358 cell growth in a cell viability assay.

SW1783 = assay type: functional, cell-based;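 also: cell growth inhibition measured with a viability assay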
Description: SANGER: Inhibition of human SW1783 cell growth in a cell viability assay.

MDA-MB-453 = assay type: functional, cell-based
Description: SANGER: Inhibition of human MDA-MB-453 cell growth in a cell viability assay.

NCI-H596 = assay type: functional, cell-based;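 also: growth inhibition of NCI-H596 cells, read out with a cell viability assay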
Description: SANGER: Inhibition of human NCI-H596 cell growth in a cell viability assay.

SCC-25 = assay type: functional, cell-based;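 also: growth inhibition of SCC-25 cells, measured with a cell viability assay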
Description: SANGER: Inhibition of human SCC-25 cell growth in a cell viability assay.

T84 = assay type: functional, cell-based;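 also: growth inhibition measured with a cell viability readout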
Description: SANGER: Inhibition of human T84 cell growth in a cell viability assay.

KYSE-520 cell line = assay type: functional, cell-based;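 also: growth inhibition of human KYSE-520 cells, read out with a viability assay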
Description: SANGER: Inhibition of human KYSE-520 cell growth in a cell viability assay.

HuCCT-1 = assay type: functional, cell-based, HuCCT1;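 also: growth inhibition of HuCCT-1 cells, read out by a cell viability assay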
Description: SANGER: Inhibition of human HuCCT1 cell growth in a cell viability assay.

RCM-1 = assay type: functional, cell-based;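 also: growth inhibition of the RCM-1 line, determined with a cell viability readout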
Description: SANGER: Inhibition of human RCM-1 cell growth in a cell viability assay.

SMILES: C[C@]12O[C@H](C[C@]1(O)CO)n1c3ccccc3c3c4c(c5c6ccccc6n2c5c31)CNC4=O [LESTAURTINIB]
- IC50 (CAL-72): > 2 µM
- IC50 (8305C): > 2 µM
- IC50 (CAMA-1): 1.04 µM
- IC50 (RVH-421): 0.244 µM
- IC50 (D-392MG): 0.593 µM
- IC50 (NCI-H2122): 1.92 µM
- IC50 (MDA-MB-415): > 2 µM
- IC50 (HCC1806): 0.127 µM
- IC50 (786-0): 1.56 µM
- IC50 (NCI-H1693): > 2 µM
- IC50 (COLO-680N): > 2 µM
- IC50 (OAW-28): > 2 µM
- IC50 (DBTRG-05MG): > 2 µM
- IC50 (NCI-H2405): 1.82 µM
- IC50 (FaDu): 0.648 µM
- IC50 (COLO-678): > 2 µM
- IC50 (LU-99A): 1.01 µM
- IC50 (LK-2): 0.428 µM
- IC50 (HCC1954): > 2 µM
- IC50 (RPMI-7951): 0.318 µM
- IC50 (HT1197): > 2 µM
- IC50 (SW948): > 2 µM
- IC50 (HCC70): > 2 µM
- IC50 (HMV-2 cell line): 0.0558 µM
- IC50 (HSC-4): 0.203 µM
- IC50 (NCI-H520): 0.203 µM
- IC50 (SAS): 0.958 µM
- IC50 (ASPC1): 1.62 µM
- IC50 (CAL-120): 0.336 µM
- IC50 (MFE-280): > 2 µM
- IC50 (ESS-1): 0.682 µM
- IC50 (FTC-133): 0.158 µM
- IC50 (EGI-1): 0.572 µM
- IC50 (NB17): 0.382 µM
- IC50 (P12-Ichikawa): 0.0262 µM
- IC50 (SW1573): 1.07 µM
- IC50 (Capan-2): > 2 µM
- IC50 (NCI-H1793): > 2 µM
- IC50 (HGC-27): 0.19 µM
- IC50 (VM-CUB-1): 0.651 µM
- IC50 (HLE): 1.39 µM
- IC50 (NCI-H358): > 2 µM
- IC50 (SW1783): 1.6 µM
- IC50 (MDA-MB-453): 1.91 µM
- IC50 (NCI-H596): > 2 µM
- IC50 (SCC-25): 0.758 µM
- IC50 (T84): > 2 µM
- IC50 (KYSE-520 cell line): 1.93 µM
- IC50 (HuCCT-1): 0.862 µM
- IC50 (RCM-1): 1.59 µM
